In publication PMC3352927, “Development and Validation of an Automated High-Throughput System for Zebrafish In Vivo Screenings” (PLoS ONE, 2012):
“Also recorded” adds a separate entry of the source.

Tests used:
zebrafish embryos [1] = assay: Automated angiogenesis assay (ISV formation), Flk1:copGFP embryos treated at 22-26 hpf, read at 48 hpf; format: in vivo; conditions: for Angiog. inhibition: presence or absence of an anti-angiogenic effect, 0.01-100 µM; for Anti-angiogenic phenotype (ISVs / DLAV): treated at 24 hpf, checked at 48 hpf
Description: In the angiogenesis assay, the fluorescent images taken were processed using AxioVision 4.6.3 and a macro was developed to quantify an indirect measure of the area of the ISVs. […] However, we usually include a manual counting to offer a more detailed measurement of effect.
In the automatic analysis of angiogenesis, it is first necessary to perform a sequence of automated filtering functions on the image to extract information, define the region of interest (ROI), that in this case is the part of the tail containing the ISVs, and allow the measurement of the embryo length. Recovering a previous image, new filtering functions are applied to the ROI. A gradient image containing the ISVs, the DLAV (Dorsal Longitudinal Anastomotic Vessel), the PCV and the DA is created. Next, fluorescent areas that should not be quantified are discarded. Finally, only the areas comprised between the ISVs, the DLAV and the PCV or the DA are measured (Figure 4). In that way, when the vessels are incomplete or the DLAV is not present, an enclosed area is not present and therefore not measured.
The means obtained from the treated embryos were compared with the control mean. When statistically significant differences were detected a deeper analysis was done manually. In this case the parameters quantified were:
• The total number of ISVs present in the trunk of the embryos (from where the largest bulge of the yolk ends to the end of the tail). • Number of complete ISVs (reached the dorsal part of the embryo and formed the DLAV).
A curve of six concentrations (0.01, 0.1, 1, 10, 30 and 100 µM) was performed for all of them. […] IC50 was calculated when a clear dose-dependent anti-angiogenesis effect was detected. Otherwise, the minimum dose at which the inhibition of angiogenesis was observed is shown (Table 4).
At this time, chorions were removed with protease from Streptomyces griseus (Sigma-Aldrich) (1.5 mg/ml for 6 minutes) and the embryos were sorted and dispensed 1 per well in a 96 well assay plate. Each experimental condition was tested in a row with ten embryos. Embryos were dispensed in an average final volume of 90 µl of E3 media. 90 µl of the test items (DMSO and positive control KRN633 included) previously diluted 100 times were dispensed into each well of the assay plate containing the embryos to get the final volume of 180 µl and the desired final concentration.
The microscope scanned the wells by columns and a bright field image and a fluorescent image (2.5×magnification) were acquired per well. Then, the image analysis was performed and the result file generated.
Statistical analysis and graphical representation of the data were performed using SSPS (Statistical Package for the Social Sciences) software and Prism (Graph Pad Software) for IC50 calculations (non linear regression, sigmoidal dose-response with variable slope). […] In the angiogenesis assay, for comparisons between two groups, two-tailed t-test was used assuming unequal variances. For comparisons between more than two groups one-way analysis of variance followed by Dunnett’s post-test was applied to compare each data point with vehicle control.

zebrafish embryos [2] = assay: Embryo analysis at 72 hpf (blood circulation and ISVs development); format: in vivo; conditions: 72 hpf
Description: Embryos from the Flk1:copGFP line were treated with the indicated compounds at 22–23 hpf in 500 µl of E3 in p24 well plates (5 embryos per well). After 48 hours of treatment embryos were anesthetized with 10 µl Tricaine (final concentration 0.02%) and analyzed for the presence of blood circulation and ISVs development using a Leica M205 FA stereoscope equipped with a Hamamatsu C10600 camera.

[3] = Dilution of compound in E3 medium; format: physicochemical

CCN(CC)CCCCNc1ncc2cc(-c3cc(OC)cc(OC)c3)c(NC(=O)NC(C)(C)C)nc2n1 [PD173074]
Efective concentration (minimum concentration that showed an effect) (zebrafish embryos [1]; given when IC50 could not be calculated): 100 µM | Angiog. inhibition (zebrafish embryos [1]): Yes | Anti-angiogenic phenotype (ISVs / DLAV) (zebrafish embryos [1]): moderate effect that did not increase with higher doses; also recorded: inhibit proper development of the DLAV; also recorded: thinner ISVs rather than incomplete vessel formation | Blood circulation (zebrafish embryos [2]): impaired blood circulation | ISVs appearance (zebrafish embryos [2]): thinner ISVs that were disrupted in some cases

CC(=O)O[C@H]1C(=O)[C@@]2(C)[C@H]([C@H](OC(=O)c3ccccc3)[C@]3(O)C[C@H](OC(=O)[C@H](O)[C@@H](NC(=O)c4ccccc4)c4ccccc4)C(C)=C1C3(C)C)[C@]1(OC(C)=O)CO[C@@H]1C[C@@H]2O [Paclitaxel]
Inhibition of angiogenesis at maximum dose tested in medium (zebrafish embryos [1]; 10 µM in E3 medium): not enough to induce inhibition of angiogenesis | Angiog. inhibition (zebrafish embryos [1]): Yes | Anti-angiogenic phenotype (ISVs / DLAV) (zebrafish embryos [1]): the formation of ISVs was perturbed with defective or total absence of sprouting | Behaviour after dilution in E3 medium [3]: precipitated
